Results as given in patent publication US12215129B2, “Antibacterial cyclopeptides targeting acinetobacter and other gram-negative pathogens” (priority 2020, dated 2025).
Values joined by “and” are separate entries in the source; they are usually repeats but may differ in a detail not shown here. Identical values can stand only once. Like-named read-outs stand apart in the source and are kept apart here. Marks after values point to notes of the source that are not given here.

Assays:
[1] = human, in vivo; cited from earlier work
[2] = system: A. baumannii ATCC 17978; assay: Thigh infection neutropenic mouse model, efficacy (CFU/thigh); assay type: in vivo, Acinetobacter baumannii; details: 30 mg/kg SC, BID, q12h
[3] = system: Acinetobacter baumannii (ATCC 19606)
[4] = system: clinical A. baumannii complex isolates

CCCCCCCCCC(=O)N[C@@H](Cc1c[nH]c2ccccc12)C(=O)N[C@H](CC(N)=O)C(=O)N[C@@H](CC(=O)O)C(=O)N[C@@H]1C(=O)NCC(=O)N[C@@H](CCCN)C(=O)N[C@@H](CC(=O)O)C(=O)N[C@H](C)C(=O)N[C@@H](CC(=O)O)C(=O)NCC(=O)N[C@H](CO)C(=O)N[C@@H]([C@H](C)CC(=O)O)C(=O)N[C@@H](CC(=O)c2ccccc2N)C(=O)O[C@@H]1C [Daptomycin]
Half Life [1]: ~8 h | Vss [1]: ~0.1 L/kg | clearance [1]: ~9 mL/h/kg

Colistin [reference compound]
Decrease (%) ([2]; 26 h, decrease in counts compared to the vehicle group): 100% | Δ ([2]; 26 h, difference in bacterial counts relative to the baseline group (2 h initial counts)): −2.73^# | CFU/thigh Time post inoculation 2, 26 h ([2]; 26 h, individual animals): 1.77 × 10^3 CFU/thigh and 5.73 × 10^3 CFU/thigh and 5.64 × 10^3 CFU/thigh and 1.98 × 10^3 CFU/thigh and 3.57 × 10^3 CFU/thigh | Log (CFU/thigh) Time post inoculation 2, 26 h ([2]; 26 h, individual animals): 3.25 Log (CFU/thigh) and 3.76 Log (CFU/thigh) and 3.75 Log (CFU/thigh) and 3.30 Log (CFU/thigh) and 3.55 Log (CFU/thigh) | CFU/thigh Time post inoculation 2, 26 h, Mean ([2]; 26 h, mean of 5 animals): 3.74 × 10^3 CFU/thigh | Log (CFU/thigh) Time post inoculation 2, 26 h, Mean ([2]; 26 h, mean of 5 animals): 3.52* Log (CFU/thigh) | Dilution (CFU/plate) 0 ([2]; raw data, dilution 0, individual animals): 59 CFU/plate and 191 CFU/plate and 188 CFU/plate and 66 CFU/plate and 119 CFU/plate | Dilution (CFU/plate) 10^1 ([2]; raw data, dilution 10^1, individual animals): 3 CFU/plate and 20 CFU/plate and 21 CFU/plate and 8 CFU/plate and 13 CFU/plate | Dilution (CFU/plate) 10^2 ([2]; raw data, dilution 10^2, individual animals): 0 CFU/plate (3×) and 1 CFU/plate (2×) | Dilution (CFU/plate) 10^3 ([2]; raw data, dilution 10^3, individual animals): 0 CFU/plate | MIC [3]: 2 µg/mL | MIC ([4]; ARUP ABC 1): 4 µg/mL | MIC ([4]; ARUP ABC 2): 4 µg/mL | MIC ([4]; ARUP ABC 3): >32 µg/mL | MIC ([4]; CDC AB282): 1 µg/mL | MIC ([4]; CDC AB286): 1 µg/mL | MIC ([4]; CDC AB299): 2 µg/mL | MIC ([4]; CDC AB302): 2 µg/mL | MIC ([4]; CDC AB303): >32 µg/mL | MIC ([4]; CDC AB307): 8 µg/mL
